≈ marks a conversion by molar mass, not a printed value.
Assays:
Type in all cases: functional
Staphylococcus aureus [1] = test: Antibacterial activity against Staphylococcus aureus ATCC 29213 assessed as inhibition of bacterial growth incubated for 24 hrs
Staphylococcus aureus [2] = test: Antibacterial activity against Staphylococcus aureus clinical isolate assessed as inhibition of bacterial growth incubated for 24 hrs
Enterococcus faecalis = test: Antibacterial activity against Enterococcus faecalis clinical isolate assessed as inhibition of bacterial growth incubated for 24 hrs
Pseudomonas aeruginosa [3] = test: Antibacterial activity against Pseudomonas aeruginosa clinical isolate assessed as inhibition of bacterial growth incubated for 24 hrs
Pseudomonas aeruginosa [4] = test: Antibacterial activity against Pseudomonas aeruginosa ATCC 27853 assessed as inhibition of bacterial growth incubated for 24 hrs
Staphylococcus aureus [5] = test: Antibacterial activity against Staphylococcus aureus ATCC 25923 assessed as inhibition of bacterial growth incubated for 24 hrs
Escherichia coli [6] = test: Antibacterial activity against Escherichia coli ATCC 25922 assessed as inhibition of bacterial growth incubated for 24 hrs
Acinetobacter baumannii = test: Antibacterial activity against Acinetobacter baumannii clinical isolate assessed as inhibition of bacterial growth incubated for 24 hrs
Escherichia coli [7] = test: Antibacterial activity against Escherichia coli clinical isolate assessed as inhibition of bacterial growth incubated for 24 hrs
Staphylococcus aureus [8] = test: Antibacterial activity against methicillin resistant Staphylococcus aureus clinical isolate assessed as inhibition of bacterial growth incubated for 24 hrs
Klebsiella pneumoniae = test: Antibacterial activity against Klebsiella pneumoniae clinical isolate assessed as inhibition of bacterial growth incubated for 24 hrs

N#CCc1cc2c(cc1F)c(=O)c(C(=O)O)cn2Cc1ccc(Cl)c(Cl)c1
MIC (Staphylococcus aureus [1]): 2 µg/mL (≈ 4.94 µM)
MIC (Staphylococcus aureus [2]): 256 µg/mL (≈ 632 µM)
MIC (Enterococcus faecalis): 256 µg/mL (≈ 632 µM)
MIC (Pseudomonas aeruginosa [3]): 0.5 µg/mL (≈ 1.23 µM)
MIC (Pseudomonas aeruginosa [4]): 2 µg/mL (≈ 4.94 µM)
MIC (Staphylococcus aureus [5]): 0.25 µg/mL (≈ 0.617 µM)
MIC (Escherichia coli [6]): 2 µg/mL (≈ 4.94 µM)
MIC (Acinetobacter baumannii): 0.5 µg/mL (≈ 1.23 µM)
MIC (Escherichia coli [7]): 8 µg/mL (≈ 19.7 µM)
MIC (Staphylococcus aureus [8]): 256 µg/mL (≈ 632 µM)
MIC (Klebsiella pneumoniae): 16 µg/mL (≈ 39.5 µM)

Cc1ccc(Cn2cc(C(=O)O)c(=O)c3cc(F)c(CC#N)cc32)cc1
MIC (Staphylococcus aureus [1]): 256 µg/mL (≈ 731 µM)
MIC (Staphylococcus aureus [2]): 256 µg/mL (≈ 731 µM)
MIC (Enterococcus faecalis): 4 µg/mL (≈ 11.4 µM)
MIC (Pseudomonas aeruginosa [3]): 0.5 µg/mL (≈ 1.43 µM)
MIC (Pseudomonas aeruginosa [4]): 4 µg/mL (≈ 11.4 µM)
MIC (Staphylococcus aureus [5]): 0.25 µg/mL (≈ 0.714 µM)
MIC (Escherichia coli [6]): 0.25 µg/mL (≈ 0.714 µM)
MIC (Acinetobacter baumannii): 256 µg/mL (≈ 731 µM)
MIC (Escherichia coli [7]): 256 µg/mL (≈ 731 µM)
MIC (Staphylococcus aureus [8]): 8 µg/mL (≈ 22.8 µM)
MIC (Klebsiella pneumoniae): 256 µg/mL (≈ 731 µM)

N#CCc1cc2c(cc1F)c(=O)c(C(=O)O)cn2CC1CCCCC1
MIC (Staphylococcus aureus [1]): 256 µg/mL (≈ 748 µM)
MIC (Staphylococcus aureus [2]): 256 µg/mL (≈ 748 µM)
MIC (Enterococcus faecalis): 256 µg/mL (≈ 748 µM)
MIC (Pseudomonas aeruginosa [3]): 16 µg/mL (≈ 46.7 µM)
MIC (Pseudomonas aeruginosa [4]): 256 µg/mL (≈ 748 µM)
MIC (Staphylococcus aureus [5]): 256 µg/mL (≈ 748 µM)
MIC (Escherichia coli [6]): 256 µg/mL (≈ 748 µM)
MIC (Acinetobacter baumannii): 256 µg/mL (≈ 748 µM)
MIC (Escherichia coli [7]): 256 µg/mL (≈ 748 µM)
MIC (Staphylococcus aureus [8]): 256 µg/mL (≈ 748 µM)
MIC (Klebsiella pneumoniae): 256 µg/mL (≈ 748 µM)

CCn1cc(C(=O)O)c(=O)c2cc(F)c(CC(=O)O)cc21
MIC (Staphylococcus aureus [1]): 32 µg/mL (≈ 109 µM)
MIC (Staphylococcus aureus [2]): 64 µg/mL (≈ 218 µM)
MIC (Enterococcus faecalis): 0.5 µg/mL (≈ 1.71 µM)
MIC (Pseudomonas aeruginosa [3]): 8 µg/mL (≈ 27.3 µM)
MIC (Pseudomonas aeruginosa [4]): 2 µg/mL (≈ 6.82 µM)
MIC (Staphylococcus aureus [5]): 16 µg/mL (≈ 54.6 µM)
MIC (Escherichia coli [6]): 8 µg/mL (≈ 27.3 µM)
MIC (Acinetobacter baumannii): 16 µg/mL (≈ 54.6 µM)
MIC (Escherichia coli [7]): 8 µg/mL (≈ 27.3 µM)
MIC (Staphylococcus aureus [8]): 64 µg/mL (≈ 218 µM)
MIC (Klebsiella pneumoniae): 1 µg/mL (≈ 3.41 µM)

N#CCc1cc2c(cc1F)c(=O)c(C(=O)O)cn2CC1CC1
MIC (Staphylococcus aureus [1]): 1 µg/mL (≈ 3.33 µM)
MIC (Staphylococcus aureus [2]): 256 µg/mL (≈ 853 µM)
MIC (Enterococcus faecalis): 64 µg/mL (≈ 213 µM)
MIC (Pseudomonas aeruginosa [3]): 0.25 µg/mL (≈ 0.833 µM)
MIC (Pseudomonas aeruginosa [4]): 1 µg/mL (≈ 3.33 µM)
MIC (Staphylococcus aureus [5]): 0.25 µg/mL (≈ 0.833 µM)
MIC (Escherichia coli [6]): 0.25 µg/mL (≈ 0.833 µM)
MIC (Acinetobacter baumannii): 0.25 µg/mL (≈ 0.833 µM)
MIC (Escherichia coli [7]): 1 µg/mL (≈ 3.33 µM)
MIC (Staphylococcus aureus [8]): 0.5 µg/mL (≈ 1.67 µM)
MIC (Klebsiella pneumoniae): 2 µg/mL (≈ 6.66 µM)

N#CCc1cc2c(cc1F)c(=O)c(C(=O)O)cn2CCN1CCOCC1
MIC (Staphylococcus aureus [1]): 4 µg/mL (≈ 11.1 µM)
MIC (Staphylococcus aureus [2]): 16 µg/mL (≈ 44.5 µM)
MIC (Enterococcus faecalis): 16 µg/mL (≈ 44.5 µM)
MIC (Pseudomonas aeruginosa [3]): 2 µg/mL (≈ 5.57 µM)
MIC (Pseudomonas aeruginosa [4]): 16 µg/mL (≈ 44.5 µM)
MIC (Staphylococcus aureus [5]): 1 µg/mL (≈ 2.78 µM)
MIC (Escherichia coli [6]): 4 µg/mL (≈ 11.1 µM)
MIC (Acinetobacter baumannii): 8 µg/mL (≈ 22.3 µM)
MIC (Escherichia coli [7]): 16 µg/mL (≈ 44.5 µM)
MIC (Staphylococcus aureus [8]): 8 µg/mL (≈ 22.3 µM)
MIC (Klebsiella pneumoniae): 8 µg/mL (≈ 22.3 µM)

O=C(O)Cc1cc2c(cc1F)c(=O)c(C(=O)O)cn2Cc1ccccc1Cl
MIC (Staphylococcus aureus [1]): 8 µg/mL (≈ 20.5 µM)
MIC (Staphylococcus aureus [2]): 32 µg/mL (≈ 82.1 µM)
MIC (Enterococcus faecalis): 32 µg/mL (≈ 82.1 µM)
MIC (Pseudomonas aeruginosa [3]): 64 µg/mL (≈ 164 µM)
MIC (Pseudomonas aeruginosa [4]): 4 µg/mL (≈ 10.3 µM)
MIC (Staphylococcus aureus [5]): 16 µg/mL (≈ 41.1 µM)
MIC (Escherichia coli [6]): 8 µg/mL (≈ 20.5 µM)
MIC (Acinetobacter baumannii): 32 µg/mL (≈ 82.1 µM)
MIC (Escherichia coli [7]): 32 µg/mL (≈ 82.1 µM)
MIC (Staphylococcus aureus [8]): 32 µg/mL (≈ 82.1 µM)
MIC (Klebsiella pneumoniae): 0.5 µg/mL (≈ 1.28 µM)

CC(C)=CCn1cc(C(=O)O)c(=O)c2cc(F)c(CC#N)cc21
MIC (Staphylococcus aureus [1]): 16 µg/mL (≈ 50.9 µM)
MIC (Staphylococcus aureus [2]): 256 µg/mL (≈ 814 µM)
MIC (Enterococcus faecalis): 128 µg/mL (≈ 407 µM)
MIC (Pseudomonas aeruginosa [3]): 0.5 µg/mL (≈ 1.59 µM)
MIC (Pseudomonas aeruginosa [4]): 2 µg/mL (≈ 6.36 µM)
MIC (Staphylococcus aureus [5]): 0.25 µg/mL (≈ 0.795 µM)
MIC (Escherichia coli [6]): 0.5 µg/mL (≈ 1.59 µM)
MIC (Acinetobacter baumannii): 256 µg/mL (≈ 814 µM)
MIC (Escherichia coli [7]): 256 µg/mL (≈ 814 µM)
MIC (Staphylococcus aureus [8]): 1 µg/mL (≈ 3.18 µM)
MIC (Klebsiella pneumoniae): 0.5 µg/mL (≈ 1.59 µM)

CCCCCn1cc(C(=O)O)c(=O)c2cc(F)c(CC#N)cc21
MIC (Staphylococcus aureus [1]): 8 µg/mL (≈ 25.3 µM)
MIC (Staphylococcus aureus [2]): 256 µg/mL (≈ 809 µM)
MIC (Enterococcus faecalis): 256 µg/mL (≈ 809 µM)
MIC (Pseudomonas aeruginosa [3]): 1 µg/mL (≈ 3.16 µM)
MIC (Pseudomonas aeruginosa [4]): 4 µg/mL (≈ 12.6 µM)
MIC (Staphylococcus aureus [5]): 0.25 µg/mL (≈ 0.79 µM)
MIC (Escherichia coli [6]): 0.25 µg/mL (≈ 0.79 µM)
MIC (Acinetobacter baumannii): 256 µg/mL (≈ 809 µM)
MIC (Escherichia coli [7]): 16 µg/mL (≈ 50.6 µM)
MIC (Staphylococcus aureus [8]): 0.5 µg/mL (≈ 1.58 µM)
MIC (Klebsiella pneumoniae): 1 µg/mL (≈ 3.16 µM)

N#CCc1cc2c(cc1F)c(=O)c(C(=O)O)cn2CC1CCCC1
MIC (Staphylococcus aureus [1]): 256 µg/mL (≈ 780 µM)
MIC (Staphylococcus aureus [2]): 128 µg/mL (≈ 390 µM)
MIC (Enterococcus faecalis): 256 µg/mL (≈ 780 µM)
MIC (Pseudomonas aeruginosa [3]): 256 µg/mL (≈ 780 µM)
MIC (Pseudomonas aeruginosa [4]): 128 µg/mL (≈ 390 µM)
MIC (Staphylococcus aureus [5]): 64 µg/mL (≈ 195 µM)
MIC (Escherichia coli [6]): 256 µg/mL (≈ 780 µM)
MIC (Acinetobacter baumannii): 128 µg/mL (≈ 390 µM)
MIC (Escherichia coli [7]): 32 µg/mL (≈ 97.5 µM)
MIC (Staphylococcus aureus [8]): 256 µg/mL (≈ 780 µM)
MIC (Klebsiella pneumoniae): 256 µg/mL (≈ 780 µM)

CCCCCCCCn1cc(C(=O)O)c(=O)c2cc(F)c(CC(=O)O)cc21
MIC (Staphylococcus aureus [1]): 4 µg/mL (≈ 10.6 µM)
MIC (Staphylococcus aureus [2]): 16 µg/mL (≈ 42.4 µM)
MIC (Enterococcus faecalis): 2 µg/mL (≈ 5.3 µM)
MIC (Pseudomonas aeruginosa [3]): 1 µg/mL (≈ 2.65 µM)
MIC (Pseudomonas aeruginosa [4]): 2 µg/mL (≈ 5.3 µM)
MIC (Staphylococcus aureus [5]): 4 µg/mL (≈ 10.6 µM)
MIC (Escherichia coli [6]): 2 µg/mL (≈ 5.3 µM)
MIC (Acinetobacter baumannii): 4 µg/mL (≈ 10.6 µM)
MIC (Escherichia coli [7]): 2 µg/mL (≈ 5.3 µM)
MIC (Staphylococcus aureus [8]): 4 µg/mL (≈ 10.6 µM)
MIC (Klebsiella pneumoniae): 0.5 µg/mL (≈ 1.32 µM)

CCCCCCn1cc(C(=O)O)c(=O)c2cc(F)c(CC#N)cc21
MIC (Staphylococcus aureus [1]): 256 µg/mL (≈ 775 µM)
MIC (Staphylococcus aureus [2]): 256 µg/mL (≈ 775 µM)
MIC (Enterococcus faecalis): 256 µg/mL (≈ 775 µM)
MIC (Pseudomonas aeruginosa [3]): 2 µg/mL (≈ 6.05 µM)
MIC (Pseudomonas aeruginosa [4]): 256 µg/mL (≈ 775 µM)
MIC (Staphylococcus aureus [5]): 0.25 µg/mL (≈ 0.757 µM)
MIC (Escherichia coli [6]): 0.5 µg/mL (≈ 1.51 µM)
MIC (Acinetobacter baumannii): 256 µg/mL (≈ 775 µM)
MIC (Escherichia coli [7]): 4 µg/mL (≈ 12.1 µM)
MIC (Staphylococcus aureus [8]): 256 µg/mL (≈ 775 µM)
MIC (Klebsiella pneumoniae): 8 µg/mL (≈ 24.2 µM)

Cn1cc(C(=O)O)c(=O)c2cc(F)c(CC#N)cc21
MIC (Staphylococcus aureus [1]): 8 µg/mL (≈ 30.7 µM)
MIC (Staphylococcus aureus [2]): 1 µg/mL (≈ 3.84 µM)
MIC (Enterococcus faecalis): 4 µg/mL (≈ 15.4 µM)
MIC (Pseudomonas aeruginosa [3]): 0.5 µg/mL (≈ 1.92 µM)
MIC (Pseudomonas aeruginosa [4]): 2 µg/mL (≈ 7.69 µM)
MIC (Staphylococcus aureus [5]): 1 µg/mL (≈ 3.84 µM)
MIC (Escherichia coli [6]): 1 µg/mL (≈ 3.84 µM)
MIC (Acinetobacter baumannii): 4 µg/mL (≈ 15.4 µM)
MIC (Escherichia coli [7]): 16 µg/mL (≈ 61.5 µM)
MIC (Staphylococcus aureus [8]): 2 µg/mL (≈ 7.69 µM)
MIC (Klebsiella pneumoniae): 0.5 µg/mL (≈ 1.92 µM)

N#CCc1cc2c(cc1F)c(=O)c(C(=O)O)cn2Cc1ccc(Cl)cc1Cl
MIC (Staphylococcus aureus [1]): 2 µg/mL (≈ 4.94 µM)
MIC (Staphylococcus aureus [2]): 256 µg/mL (≈ 632 µM)
MIC (Enterococcus faecalis): 256 µg/mL (≈ 632 µM)
MIC (Pseudomonas aeruginosa [3]): 0.5 µg/mL (≈ 1.23 µM)
MIC (Pseudomonas aeruginosa [4]): 32 µg/mL (≈ 79 µM)
MIC (Staphylococcus aureus [5]): 0.5 µg/mL (≈ 1.23 µM)
MIC (Escherichia coli [6]): 1 µg/mL (≈ 2.47 µM)
MIC (Acinetobacter baumannii): 8 µg/mL (≈ 19.7 µM)
MIC (Escherichia coli [7]): 1 µg/mL (≈ 2.47 µM)
MIC (Staphylococcus aureus [8]): 256 µg/mL (≈ 632 µM)
MIC (Klebsiella pneumoniae): 16 µg/mL (≈ 39.5 µM)

Reference: ChEMBL document CHEMBL5506059, “Cyanomethylquinolones as a New Class of Potential Multitargeting Broad-Spectrum Antibacterial Agents” (J Med Chem, 2024)
